From ChEMBL document CHEMBL1142331, “Activation and inhibition of DNA methyltransferases by S-adenosyl-L-homocysteine analogues” (Bioorg Med Chem, 2008)
The source made the active and inactive calls. The rule behind the calls is not given here.

Legend:
[1] = test system: Escherichia coli; assay: Inhibition of Escherichia coli DNA methyltransferase assessed as fluorescence quenching measured
[2] = test system: ER1727; assay: Inhibition of M.HhaI DNA methyltransferase expressed in ER1727 cells at 15 uM after 30 mins; format: cell-based; conditions: Haemophilus haemolyticus
[3] = test system: Escherichia coli; assay: Inhibition of Escherichia coli DNA methyltransferase at 15 uM after 30 mins
[4] = test system: Escherichia coli; assay: Activation of Escherichia coli DNA methyltransferase upto 20 uM
[5] = test system: Haemophilus haemolyticus; assay: Activation of M.HhaI DNA methyltransferase upto 16 uM
[6] = molecular target: T1, DNA adenine methylase (Escherichia coli K-12) (UniProt P0AEE8); assay: Inhibition of Escherichia coli DNA adenine methyltransferase at 15 uM after 30 mins
T1 sequence (whole entry): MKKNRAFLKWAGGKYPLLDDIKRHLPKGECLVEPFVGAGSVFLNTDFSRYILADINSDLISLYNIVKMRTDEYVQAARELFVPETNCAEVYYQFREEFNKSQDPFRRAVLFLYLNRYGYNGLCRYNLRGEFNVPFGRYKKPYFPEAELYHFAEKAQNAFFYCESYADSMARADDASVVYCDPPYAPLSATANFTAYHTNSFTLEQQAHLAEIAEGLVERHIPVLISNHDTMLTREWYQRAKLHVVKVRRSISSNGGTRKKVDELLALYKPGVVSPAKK

[7] = Inhibition of Escherichia coli DNA methyltransferase measured by secondary plot
[8] = Inhibition of Escherichia coli DNA methyltransferase measured by dixon plot
[9] = test system: Escherichia coli; assay: Inhibition of Escherichia coli DNA methyltransferase after 30 mins
[10] = test system: ER1727; assay: Inhibition of M.HhaI DNA methyltransferase expressed in ER1727 cells after 30 mins; format: cell-based; conditions: Haemophilus haemolyticus

Row | Activity [3] | SMILES | Activity [2] | also measured
1 | inactive | CCOC(=O)CCSC[C@H]1O[C@@H](n2cnc3c(N)ncnc32)[C@H](O)[C@@H]1O | inactive | Activity [1]: inactive
2 | Active | Nc1ncnc2c1ncn2[C@@H]1O[C@H](CSCC[C@H](N)C(=O)O)[C@@H](O)[C@H]1O | Active | 
3 |  | Nc1cccc2c1ncn2[C@@H]1O[C@H](CSCCC(=O)O)[C@@H](O)[C@H]1O |  | Activity [1]: 5.66 µM; Activity [4]: Active; Activity [5]: Active; Activity [6]: Active
4 | inactive | NC(=O)CCSC[C@H]1O[C@@H](n2cnc3c(N)ncnc32)[C@H](O)[C@@H]1O | inactive | 
5 | inactive | Nc1ncnc2c1ncn2[C@@H]1O[C@H](CCl)[C@@H](O)[C@H]1O | inactive | 
6 | inactive | O=[N+]([O-])c1cccc2c1ncn2[C@@H]1O[C@H](CO)[C@@H](O)[C@H]1O | inactive | 
7 |  | Nc1ncnc2c1ncn2[C@@H]1O[C@H](CSCCC(=O)O)[C@@H](O)[C@H]1O |  | Activity [1]: 22 µM; Ki [7]: 5 µM; IC50 [8]: 5 µM; Activity [9]: Dose-dependent effect; Activity [10]: Dose-dependent effect; Activity [6]: Active
8 | inactive | CSC[C@H]1O[C@@H](n2cnc3c(N)ncnc32)[C@H](O)[C@@H]1O | inactive | 
9 | inactive | C=CCSC[C@H]1O[C@@H](n2cnc3c([N+](=O)[O-])cccc32)[C@H](O)[C@@H]1O | inactive | 

Row | SMILES | Activity [3] | Activity [2] | also measured
10 | C#CCSC[C@H]1O[C@@H](n2cnc3c(N)ncnc32)[C@H](O)[C@@H]1O | inactive | inactive | 
11 | CC#CSC[C@H]1O[C@@H](n2cnc3c(N)ncnc32)[C@H](O)[C@@H]1O | inactive | inactive | 
12 | C=C=CSC[C@H]1O[C@@H](n2cnc3c(N)ncnc32)[C@H](O)[C@@H]1O | inactive | inactive | 
